Reference: ChEMBL document CHEMBL1201862, “PubChem BioAssay data set” (2004)
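Interpolation was linear, between the two tested concentrations surrounding the appropriate level; five concentrations were tested over 48 hours in 96-well plates. Here, GI50 denotes the concentration required for 50% inhibition of growth.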 Calls of active or inactive are those of the source. No stated cut-off is given here; in the data, active = GI50 up to about 1.1 µM and inactive = higher.

Key:
Test in all cases: growth of human tumour cells (NCI), 48 h
UACC-257 = tested on: UACC-257
PC-3 = tested on: PC-3
ACHN = tested on: ACHN
HT-29 = tested on: HT-29
HL-60 = tested on: HL-60
OVCAR-5 = tested on: OVCAR-5
NCI-H460 = tested on: NCI-H460
UACC-62 = tested on: UACC-62
NCI-H226 = tested on: NCI-H226
HCC 2998 = tested on: HCC 2998
U-251 = tested on: U-251
NCI/ADR-RES = tested on: NCI/ADR-RES
COLO 205 = tested on: COLO 205
SR = tested on: SR
NCI-H23 = tested on: NCI-H23
HOP-92 = tested on: HOP-92
SK-MEL-5 = tested on: SK-MEL-5
SF-268 = tested on: SF-268
DU-145 = tested on: DU-145
SN12C = tested on: SN12C
MDA-MB-231 = tested on: MDA-MB-231
OVCAR-8 = tested on: OVCAR-8
BT-549 = tested on: BT-549
SNB-19 = tested on: SNB-19
HCT-15 = tested on: HCT-15
SW-620 = tested on: SW-620
RPMI-8226 = tested on: RPMI-8226
HOP-62 = tested on: HOP-62
A498 = tested on: A498
M14 = tested on: M14
SK-MEL-28 = tested on: SK-MEL-28
IGROV-1 = tested on: IGROV-1
KM12 = tested on: KM12
LOX IMVI = tested on: LOX IMVI
Hs-578T = tested on: Hs-578T
NCI-H522 = tested on: NCI-H522
SNB-75 = tested on: SNB-75
786-0 = tested on: 786-0
EKVX = tested on: EKVX
MDA-MB-435 = tested on: MDA-MB-435
SF-295 = tested on: SF-295
A549 = tested on: A549
CAKI-1 = tested on: CAKI-1
Malme-3M = tested on: Malme-3M
OVCAR-3 = tested on: OVCAR-3
T47D = tested on: T47D
HCT-116 = tested on: HCT-116
MDA-N = tested on: MDA-N
OVCAR-4 = tested on: OVCAR-4
SK-MEL-2 = tested on: SK-MEL-2
MCF7 = tested on: MCF7
SF-539 = tested on: SF-539
TK-10 = tested on: TK-10
SK-OV-3 = tested on: SK-OV-3

CCNc1nc2c(ncn2C2CC(O)C(COP(=O)(O)O)O2)c(=O)[nH]1 (centres undefined)
GI50 (UACC-257): > 100 µM (inactive)
GI50 (PC-3): > 100 µM (inactive)
GI50 (ACHN): > 100 µM (inactive)
GI50 (HT-29): > 100 µM (inactive)
GI50 (HL-60): > 100 µM (inactive)
GI50 (OVCAR-5): > 100 µM (inactive)
GI50 (NCI-H460): > 100 µM (inactive)
GI50 (UACC-62): > 100 µM (inactive)
GI50 (NCI-H226): > 100 µM (inactive)
GI50 (HCC 2998): > 100 µM (inactive)
GI50 (U-251): > 100 µM (inactive)
GI50 (NCI/ADR-RES): > 100 µM (inactive)
GI50 (COLO 205): > 100 µM (inactive)
GI50 (SR): 86.3 µM (inactive)
GI50 (NCI-H23): > 100 µM (inactive)
GI50 (HOP-92): > 100 µM (inactive)
GI50 (SK-MEL-5): > 100 µM (inactive)
GI50 (SF-268): > 100 µM (inactive)
GI50 (DU-145): > 100 µM (inactive)
GI50 (SN12C): > 100 µM (inactive)
GI50 (MDA-MB-231): > 100 µM (inactive)
GI50 (OVCAR-8): > 100 µM (inactive)
GI50 (BT-549): > 100 µM (inactive)
GI50 (SNB-19): > 100 µM (inactive)
GI50 (HCT-15): > 100 µM
GI50 (SW-620): > 100 µM (inactive)
GI50 (RPMI-8226): > 100 µM (inactive)
GI50 (HOP-62): > 100 µM (inactive)
GI50 (A498): > 100 µM (inactive)
GI50 (M14): > 100 µM (inactive)
GI50 (SK-MEL-28): > 100 µM (inactive)
GI50 (IGROV-1): > 100 µM (inactive)
GI50 (KM12): > 100 µM (inactive)
GI50 (LOX IMVI): > 100 µM (inactive)
GI50 (Hs-578T): > 100 µM (inactive)
GI50 (NCI-H522): > 100 µM (inactive)
GI50 (SNB-75): > 100 µM (inactive)
GI50 (786-0): > 100 µM (inactive)
GI50 (EKVX): > 100 µM (inactive)
GI50 (MDA-MB-435): > 100 µM (inactive)
GI50 (SF-295): > 100 µM (inactive)
GI50 (A549): > 100 µM (inactive)
GI50 (CAKI-1): > 100 µM (inactive)
GI50 (Malme-3M): > 100 µM (inactive)
GI50 (OVCAR-3): > 100 µM (inactive)
GI50 (T47D): > 100 µM (inactive)
GI50 (HCT-116): > 100 µM (inactive)
GI50 (MDA-N): > 100 µM (inactive)
GI50 (OVCAR-4): > 100 µM (inactive)
GI50 (SK-MEL-2): > 100 µM (inactive)
GI50 (MCF7): > 100 µM (inactive)
GI50 (SF-539): > 100 µM (inactive)
GI50 (TK-10): > 100 µM (inactive)
GI50 (SK-OV-3): > 100 µM (inactive)
